Read-outs that look alike come from different tables or passages of the source.
What was measured:
MDA-MB-231 cells [1] = assay: MTT cytotoxicity assay, MDA-MB-231; format: cell-based, human; settings: for IC50: MTT
Method: The cytotoxic effects of the compounds were evaluated by the MTT [3-(4,5-dimethylthiazol-2-yl)-2,5-diphenyltetrazolium bromide] assay. […] Untreated controls were also included. Following incubation, 20 μL of 5 mg/mL MTT solution was added to each well and incubated at 37 °C for 3 h. Next, 100 μL of DMSO was added to dissolve the purple precipitate of formazan crystal. The absorbance at 570 nm and 630 nm as reference wavelength was measured by a microplate reader (BioTek EL 800, United States).
(§1) Cell growth inhibition (%) = [1 - (ODTreated/OD Control)] × 100.

MCF-7 cells [2] = assay: MTT cytotoxicity assay, MCF-7; format: cell-based, human
Method: (§2) The cytotoxic effects of the compounds were evaluated by the MTT [3-(4,5-dimethylthiazol-2-yl)-2,5-diphenyltetrazolium bromide] assay. The cells (50,000 cells/mL) were treated with various concentrations of the compounds (0.94–30 μM) in a 96-well plate for 72 h. Untreated controls were also included. Following incubation, 20 μL of 5 mg/mL MTT solution was added to each well and incubated at 37 °C for 3 h. Next, 100 μL of DMSO was added to dissolve the purple precipitate of formazan crystal. The absorbance at 570 nm and 630 nm as reference wavelength was measured by a microplate reader (BioTek EL 800, United States).
as §1

HT-29 cells = assay: MTT cytotoxicity assay, HT-29; format: cell-based, human; settings: HT-29, 72 h
Method: as §2, §1

A-549 cells = assay: MTT cytotoxicity assay, A-549; format: cell-based, human; settings: A-549, 72 h
Method: as §2, §1

HeLa cells = assay: MTT cytotoxicity assay, HeLa; format: cell-based, human; settings: 72 h
Method: as §2, §1

[3] = test system: mouse embryonic fibroblast NIH/3 T3 cells; assay: MTT cytotoxicity assay, NIH/3T3; format: cell-based; settings: 3T3, 72 h
Method: as §2, §1

[4] = test system: MCF-10A normal breast epithelial cells; assay: MTT cytotoxicity assay, MCF10A; format: cell-based, human; settings: 72 h
Method: as §2, §1

MDA-MB-231 cells [5] = assay: Morphological changes under inverted light microscope; format: cell-based, human
Method: Briefly, 150,000 cells per well of MDA-MB-231 cells were seeded in a 6-well plate and incubated for 24 h. Next, the cells were treated with ampelopsin E (7.5–30 μM) and further incubated for 72 h. The untreated cells were included as a control. The image was captured at 0, 24, 48 and 72 h at the same spot under an inverted microscope (Olympus, Japan).

MDA-MB-231 cells [6] = assay: Cell cycle analysis by flow cytometer; format: cell-based, human; settings: 15 and 30 μM; 24, 48 and 72 h; p < 0.05
Method: MDA-MB-231 cells were seeded at 800,000 cells per 75 cm^2 flask. Next, the cells were treated with ampelopsin E (7.5–30 μM). The untreated cells were also included as a control. The cells were incubated for 24, 48 and 72 h. Next, the cells were trypsinized, washed twice with ice cold PBS and collected. The cell pellet was fixed with ice-cold 70 % ethanol and stored at −20 °C. After a week, the cells were washed once again with ice-cold PBS. The cell pellet was mixed up with 250 μL Guava cell cycle reagents (EMD, Milliport Corporation, Hayward) and 300 μL PBS. The population of cells in each phase was measured by a flow cytometer (FACSCalibur, Becton Dickinson, USA). The results were analysed by using ModFit LT™ software.

MDA-MB-231 cells [7] = assay: Annexin V/PI flow cytometric analysis of mode of cell death; format: cell-based, human; settings: for percentage of viable cells, lower left quadrant (Annexin-V-/PI-): 24 h; for percentage of early apoptotic cells, lower right quadrant (Annexin-V+/PI-): 72 h
Method: Human Annexin V/PI Apoptosis Detection Kit I (BD Biosciences Pharmingen, Franklin Lakes, NJ, USA) was used to determine the mode of cell death induced by ampelopsin E. Briefly, the MDA-MB-231 cells were seeded at 150,000 cells per well in a 6-well plate. Next, the cells were treated with ampelopsin E (7.5–30 μM). The untreated cells were also included as a control. The cells were harvested and washed with 2 mL of ice-cold PBS. Subsequently, the samples were mixed with 100 μL of […] binding buffer on ice. Next, in the dark, 5 μL annexin V and 5 μL of propidium iodide (1 mg/mL) were added with 15 min of incubation on ice. Next, 400 μL of […] binding buffer was added to dilute the samples. The cells were analyzed by using FACS Calibur flow cytometer (Becton Dickinson, USA). The results were analysed by using FlowJo version 8.6 (Treestar Inc., San Carlos, CA).

MCF-7 cells [8] = test system: MCF-7 cells; design: method as in Wibowo et al. [34]; settings: MCF-7, ampelopsin E from Dryobalanops beccarii; ref Wibowo et al. [34]; cited from earlier work

Compound | IC50 (MDA-MB-231 cells [1]; MDA-MB-231, 72 h) [µM] | IC50 (MCF-7 cells [2]; MCF-7, 72 h) [µM] | IC50 (HT-29 cells) [µM] | IC50 (A-549 cells) [µM] | IC50 (HeLa cells) [µM] | IC50 [3] [µM] | IC50 [4] [µM] | further results
Oc1ccc([C@@H]2c3c(O)cc(O)cc3[C@@H]3c4c(O)cc(O)cc4[C@H]2[C@H]3c2ccc(O)cc2)cc1 [Ampelopsin F, ampelopsin F] | > 30 | > 30 | > 30 | > 30 | > 30 | > 30 |  | 
COc1cccc2c1C(=O)c1c(O)c3c(c(O)c1C2=O)C[C@@](O)(C(=O)CO)C[C@@H]3O[C@H]1C[C@H](N)[C@H](O)[C@H](C)O1 [Doxorubicin, reference compound] |  |  |  |  |  |  |  | IC50 (MDA-MB-231 cells [1]; Homo sapiens, MDA-MB-231, 72 h): 0.4 µM; IC50 (MCF-7 cells [2]; Homo sapiens, MCF7, MCF-7, 72 h): 0.21 ± 0.27 µM; IC50 ([4]; Homo sapiens, MCF-10A): > 10 µM
Oc1ccc(/C=C/c2c3c(cc4c2[C@@H](c2cc(O)cc(O)c2)[C@H](c2ccc(O)cc2)O4)O[C@H](c2ccc(O)cc2)[C@H]3c2cc(O)cc3c2[C@@H](c2cc(O)cc(O)c2)[C@H](c2ccc(O)cc2)O3)cc1 [Flexuosol A, flexuosol A] | 27.5 ± 3.54 | > 30 | > 30 | > 30 | > 30 | > 30 | > 30 | 
O=C1O[C@@H]2[C@H](O)COC23O[C@@H](c2ccc(O)cc2)[C@H](c2cc(O)cc4c2[C@@H](c2cc(O)cc(O)c2)[C@H](c2ccc(O)cc2)O4)[C@@]13O (stereo partly drawn) [Laevifonol, laevifonol] | > 30 | > 30 | > 30 | > 30 | > 30 | > 30 |  | 
Oc1ccc(/C=C\c2c3c(cc4c2[C@@H](c2cc(O)cc(O)c2)[C@@H](c2ccc(O)cc2)O4)O[C@H](c2ccc(O)cc2)[C@@H]3c2cc(O)cc(O)c2)cc1 [Malaysianol D] | > 30 | > 30 |  |  |  |  | > 30 | 
Malaysianol A | 23 ± 4.24 | > 30 |  |  |  |  | > 30 | 
ampelopsin E | 14.5 ± 0.71 | 29.5 ± 0.71 | > 30 | > 30 | > 30 | > 30 | > 30 | cell viability (MDA-MB-231 cells [1]; 15–30 μM, p < 0.05): significant reduction; IC50 (MDA-MB-231 cells [1]; MDA-MB-231, 24 h): 30 ± 0.13 µM; IC50 (MDA-MB-231 cells [1]; MDA-MB-231, 48 h): 16 ± 2.01 µM; IC50 (MDA-MB-231 cells [1]; MDA-MB-231, 72 h, listed as ampelopsin E): < 15 µM; morphological changes (MDA-MB-231 cells [5]; 7.5 μM): membrane blebbing; morphological changes (MDA-MB-231 cells [5]; 15 μM): cell shrinkage; morphological changes (MDA-MB-231 cells [5]; 30 μM, 48 and 72 h): Cell detachment, cell shrinkage and formation apoptotic bodies; cell cycle arrest (MDA-MB-231 cells [6]): increase in G2/M population; percentage of viable cells, lower left quadrant (Annexin-V-/PI-) (MDA-MB-231 cells [7]; 7.5 μM): 75.3%; percentage of early apoptotic cells, lower right quadrant (Annexin-V+/PI-) (MDA-MB-231 cells [7]; 7.5 μM): 12.9%; percentage of viable cells, lower left quadrant (Annexin-V-/PI-) (MDA-MB-231 cells [7]; 15 μM): 69.0%; percentage of early apoptotic cells, lower right quadrant (Annexin-V+/PI-) (MDA-MB-231 cells [7]; 15 μM): 23.6%; percentage of viable cells, lower left quadrant (Annexin-V-/PI-) (MDA-MB-231 cells [7]; 30 μM): 57.1%; percentage of early apoptotic cells, lower right quadrant (Annexin-V+/PI-) (MDA-MB-231 cells [7]; 30 μM): 33.9%; mode of cell death (MDA-MB-231 cells [7]; 7.5-30 μM): induced apoptosis; IC50 (MCF-7 cells [8]): 21 µM
nepalensinol E | > 30 | > 30 | > 30 | > 30 | > 30 | > 30 |  | 

Reference: PMC5017001, “Induction of apoptosis and G2/M arrest by ampelopsin E from Dryobalanops towards triple negative breast cancer cells, MDA-MB-231” (BMC Complementary and Alternative Medicine, 2016)
